Results taken from patent publication US10940139B2, “Compounds that interact with the Ras superfamily for the treatment of cancers, inflammatory diseases, rasopathies, and fibrotic disease” (Shy Therapeutics LLC, priority 2017, dated 2021).

The molecules below were run against KRas G12D/Q61H double mutant (Homo sapiens (Human), UniProt P01116, G12D/Q61H) (assay: Ras GTP binding domain inhibition assay (labeled GTP)). Conditions: 20 μM compound; read-out: % Inhibition at 20 μM KRas G12D Q61H.
Procedure: Buffer-I: • 50 mM Tris, pH 7.5 • 150 mM NaCl (optional) • 1 mM MgCl2 • 1 mM DTT. • KRas G12D mutant protein was expressed as a His-tagged protein. Purified His-KRas G12D protein was diluted in buffer-I to a final concentration of 3-10 μg/ml. • 200 μl of the diluted His-KRas G12D protein was added to a nickel coated 96 well plate and incubated overnight at 4° C. • The next day, wells were washed 3× in 200 μl of Buffer-I. • Then 200 μl of Buffer-I were added to each well in the presence of 1% DMSO. • Tested compounds were added to the protein-coated wells at a concentration of 20 μM, and incubated for 3 hours at room temperature. While performing IC50 measurements a serial dilution of all tested concentrations was prepared.
Then 22 μl of Cy3-GTP or Cy5-GTP was added to each well. The labeled GTP was incubated for 45 min. at room temperature. • Following GTP incubation, wells were washed 3× in Buffer-I, and 200 μl of Buffer-I were added to each well. • Following washes, the amount of bound labeled-GTP was measured with an Eppendorf AF2200 plate reader.
By substituting KRas G12D mutant protein with KRas G12C mutant, KRas wild type, KRas Q61H mutant, KRas G12D/Q61H double mutant or KRas G12C/Q61H double mutant under the assay conditions described above, KRas G12C mutant KRas wild type, KRas Q61H mutant, KRas G12D/Q61H double mutant and KRas G12C/Q61H double mutant inhibition, respectively, were each determined.

Chain of KRas G12D/Q61H double mutant (P01116-2 other isoform, or with tags, fused parts or gaps G12D/Q61H): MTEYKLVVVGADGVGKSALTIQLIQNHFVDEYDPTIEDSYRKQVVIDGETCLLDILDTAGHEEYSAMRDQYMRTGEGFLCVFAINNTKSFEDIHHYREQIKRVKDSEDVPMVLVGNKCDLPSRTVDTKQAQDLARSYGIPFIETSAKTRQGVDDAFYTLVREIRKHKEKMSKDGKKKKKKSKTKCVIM

Inhibition at 20 µM, 25 to 50%:
O=C1COc2c(cccc2C(=O)Nc2nnc(-c3ccccn3)[nH]2)N1
Cc1cc(NCCNC(=O)c2ccco2)nc(-c2ccccn2)n1
O=C(NCC(=O)N1CCN(C2CC3CCC2C3)CC1)c1ccccn1 (centres unmarked)
COc1ccc(CCNC(=O)c2cc(S(=O)(=O)C3CCCCCC3)ccc2OC)cc1OC
CC1CN(c2nc(-c3ccccn3)nc3c2CCC3)C(C)CN1C (centres unmarked)
CC(C)(C)c1ccc(OCC(=O)N2N=CCC2(O)C(F)(F)F)cc1 (centres unmarked)
CC(C)CCC(=O)Nc1nnc(-c2ccccn2)[nH]1
COc1ccc(OCCSc2nnc(C(C)Oc3ccc(F)cc3)o2)cc1 (centres unmarked)
O=C(Nc1nc(-c2cccnc2)cs1)c1ccccn1
O=S(=O)(c1ccccc1)N(CCOc1cccc(Cl)c1)c1nccs1
O=c1[nH]c(-c2ncccn2)nc2cc(-c3cccc(Cl)c3)sc12
CN1CC(Nc2nc(-c3ccccn3)nc3c2CCC3)CCC1=O (centres unmarked)
N#Cc1ccc(-c2nnc(CN3CCOc4ccccc4C3)o2)cc1
CCc1cc(CNc2cc(C)c([N+](=O)[O-])c(C(=O)OC)c2)on1
COc1ccc(-c2csc(C3CC3)n2)cc1Cl
Cc1sc(C2CC2)nc1-c1ccc(F)c(F)c1
COc1ccccc1CN(Cc1cccs1)C(=O)c1ccc(Br)o1
O=c1[nH]c(-c2ccccn2)nc2ccc(F)cc12
Cc1cccc(-c2nnc(NC(=O)C3Cc4cc(F)ccc4O3)[nH]2)n1 (centres unmarked)
O=C(c1cc(-c2ccccc2)nn1-c1ccccc1)N(Cc1nnc(-c2ccccc2Cl)o1)C1CC1
Cc1cccc(C)c1OCCn1c(CN2CCCCC2)nc2ccccc21
Cc1nc(-c2ccccn2)nc(O)c1CCC(=O)N(C)c1cccc(C#N)c1
CCc1ccc(-c2nc(C)c(C(=O)N(Cc3ccco3)C3CCS(=O)(=O)C3)s2)cc1 (centres unmarked)
COc1ccc(CC(=O)Nc2nc(-c3ccccn3)cs2)cc1OC
COc1ccc(NC(=O)CN(C)Cc2coc(-c3cccs3)n2)cc1
O=c1[nH]c(-c2ccccn2)nc2[nH]nnc12
COc1ccccc1CN(Cc1cccs1)C(=O)c1ccc(C#N)cc1
COC(=O)c1ccc2c(=O)[nH]c(-c3ccccn3)nc2c1
CCCOc1ccc(C(F)(F)F)cc1NCc1ncc(C)o1
COc1ccccc1CN(Cc1cccs1)C(=O)c1ccc(N2CCCS2(=O)=O)cc1
CCc1noc(CN(C)c2nc(-c3ccccn3)nc3c2CCC3)n1
Cc1noc(C)c1CN(C(=O)c1ccc(COc2ccc(F)cc2)o1)c1ccccc1
CCc1noc(CNc2cc(C(=O)OC)cc(C(F)(F)F)c2)n1
Cc1cccc2c(=O)[nH]c(-c3ccccn3)nc12
O=C(Nc1nnc(-c2ccccn2)[nH]1)c1ccc(NC2CC2)nc1
Nc1nc(-c2ccccn2)nn1C(=O)c1ccc(N2CCNC2=O)cc1
O=S(=O)(Oc1c(Cl)cc(Cl)c2cccnc12)N1CCCCCC1
Cc1nc(C2CCCN2c2nccc(C(F)(F)F)n2)no1 (centres unmarked)
O=C(c1cnc(-c2ccccc2)s1)N1CCC(c2ccccc2)CC1
COc1ccccc1OCc1ccc(C(=O)N2CCCc3c(F)cc(F)cc32)o1
CCNC(=O)CNc1nc(-c2ccccn2)nc(C)c1C
Cc1nn(C)c(C)c1CC(=O)Nc1nnc(-c2ccccn2)[nH]1
O=C(c1cc(-c2ccccc2)nc2ccccc12)N1N=CCC1(O)C(F)(F)F (centres unmarked)
Cc1cc(N2CCN(c3cccc(C(F)(F)F)c3)CC2)n2ncnc2n1
